Data taken from patent EP3575310A1, “PHOSPHONATE DERIVATES OF BETULIN COMPOUNDS WITH ANTIVIRAL ACTIVITY, METHOD FOR THEIR PREPARATION AND THEIR APPLICATION” (Uniwersystet Slaski w Katowicach, priority 2018, dated 2019).
Read-outs that look alike come from different tables or passages of the source.

What was measured:
[1] = system: HIV-1 infected H9 lymphocytes; details: cited from earlier work
[2] = system: HIV; details: cited from earlier work
[3] = system: HIV-1; details: cited from earlier work
[4] = system: HIV-1 (wild type, S1); assay: microbe, parasite or virus in culture; format: cell-based
Procedure: Biological testing of compounds is based on the determination of their cytotoxicity, including determination of CC50 and CC90 (Cytotoxity Concentration) and the assessment of the ability to inhibit viral replication in cell cultures and the determination of IC50 and IC90 (Inhibitory Concentration). Cytotoxicity of compounds is assessed in cultures of established lymphoid CEMT4 cell lines using the MTT method. […] The cultures are run in triplicate for every concentration of the tested compounds. HIV replication inhibition by the studied compounds is assessed in cultures of established lymphoid CEMT4 cell lines. Cells are incubated for 24 hours in a medium (RPMI 10% FBS) supplemented with known concentrations of the tested preparations. The cells are then infected with a laboratory isolate of HIV-1 (wild type, S1). The cultures are prepared in triplicate for every concentration of the tested compound. […] HIV inhibiting ability is determined after 7 days of growing the culture by determining the viral p24 protein in the medium above the cells. […] Inhibition of replication is measured by reducing the amount of p24 protein in cultures enriched in test compounds with respect to the amount of p24 in a culture carried out in a standard medium. The amount of p24 viral protein is determined using an anti-p24 immunoenzymatic test. […]

[5] = system: HIV-1; details: inhibiting the HIV-1 replication; cited from earlier work
[6] = Cytotoxicity in lymphoid CEMT4 cell cultures, MTT method; format: cell-based; details: human, CEMT4 cells, viability relative to control cultures
Procedure: Biological testing of compounds is based on the determination of their cytotoxicity, including determination of CC50 and CC90 (Cytotoxity Concentration) and the assessment of the ability to inhibit viral replication in cell cultures and the determination of IC50 and IC90 (Inhibitory Concentration). Cytotoxicity of compounds is assessed in cultures of established lymphoid CEMT4 cell lines using the MTT method. […] The cultures are run in triplicate for every concentration of the tested compounds. HIV replication inhibition by the studied compounds is assessed in cultures of established lymphoid CEMT4 cell lines. Cells are incubated for 24 hours in a medium (RPMI 10% FBS) supplemented with known concentrations of the tested preparations. The cells are then infected with a laboratory isolate of HIV-1 (wild type, S1). The cultures are prepared in triplicate for every concentration of the tested compound. Cultures containing identical number of infected cells grown in a medium not containing the tested substances are used as a positive control (100% viral replication). HIV inhibiting ability is determined after 7 days of growing the culture by determining the viral p24 protein in the medium above the cells. The amount of the protein corresponds to the number of newly synthesized viruses. Inhibition of replication is measured by reducing the amount of p24 protein in cultures enriched in test compounds with respect to the amount of p24 in a culture carried out in a standard medium. The amount of p24 viral protein is determined using an anti-p24 immunoenzymatic test. The results are presented in the form of CC50, IC50 and TI (Therapeutic Index) values. Table 1. Results of determination of anti-HIV activity of synthesized compounds and of the reference compound, AZT

In the case of “3-O-(3,3'-dimethylsuccinyl)betulinic acid [Item 3]”, the EC50 [1] is listed as 3.5 nM.

In the case of `C=C(C)[C@@H]1CC[C@]2(COC(=O)CC(C)(C)CC(=O)O)CC[C@]3(C)[C@H](CC[C@@H]4[C@@]5(C)CC[C@H](OC(=O)CC(C)(C)CC(=O)O)C(C)(C)[C@@H]5CC[C@]43C)[C@@H]12` [3,28-di-O-(3',3'-dimethylglutaryl)betulin], the EC50 [2] is given as 0.66 nM.

In the case of `C=C(C)[C@@H]1CC[C@]2(COC(=O)C(C)(C)CC(=O)O)CC[C@]3(C)[C@H](CC[C@@H]4[C@@]5(C)CC[C@H](OC(=O)CC(C)(C)C(=O)O)C(C)(C)[C@@H]5CC[C@]43C)[C@@H]12` [3-O-(3',3'-dimethylsuccinyl)-28-O-(2",2"-dimethylsuccinyl)betulin], the EC50 [2] is listed as 0.87 nM.

In the case of `C=C(C)[C@@H]1CC[C@]2(CO)CC[C@]3(C)[C@H](CC[C@@H]4[C@@]5(C)CC[C@H](O)C(C)(C)[C@@H]5CC[C@]43C)[C@@H]12` [Item 1, lup-20(29)-ene-3β,28-diol], the “activity against HIV-1” value [3] is listed as “weak activity”.

In the case of `C=C(C)[C@@H]1CC[C@]2(CO)CC[C@]3(C)[C@H](CC[C@@H]4[C@@]5(C)CC[C@H](O)C(C)(C)[C@@H]5CC[C@]43C)[C@@H]12` [Item 1], the IC50 [4] is reported as “NO”.

In the case of `C=C(C)[C@@H]1CC[C@]2(C(=O)O)CC[C@]3(C)[C@H](CC[C@@H]4[C@@]5(C)CC[C@H](O)C(C)(C)[C@@H]5CC[C@]43C)[C@@H]12` [Item 2, (3β)-3-hydroxy-lup-20(29)-en-28-oic acid], the EC50 [5] is listed as 1600 nM and the “activity against HIV-1” value [3] is listed as “weak activity”.

Molecule `C=C(C)[C@@H]1CC[C@]2(C(=O)O)CC[C@]3(C)[C@H](CC[C@@H]4[C@@]5(C)CC[C@H](O)C(C)(C)[C@@H]5CC[C@]43C)[C@@H]12` [Item 2] has a CC50 [6] of 5000 nM.

In the case of `C=C(C)[C@@H]1CC[C@]2(C(=O)O)CC[C@]3(C)[C@H](CC[C@@H]4[C@@]5(C)CC[C@H](OC(=O)CC(C)(C)C(=O)O)C(C)(C)[C@@H]5CC[C@]43C)[C@@H]12` [Item 3], the IC50 ([4]; Human immunodeficiency virus 1, CEM-T4) is reported as 30 nM.

In the case of `C=C(CP(=O)(OCC)OCC)[C@@H]1CC[C@]2(C(=O)O)CC[C@]3(C)[C@H](CC[C@@H]4[C@@]5(C)CC[C@H](OC(=O)CC(C)(C)C(=O)O)C(C)(C)[C@@H]5CC[C@]43C)[C@@H]12` [Item 5], the CC50 [6] is reported as over 69000 nM.

For `C=C(CP(=O)(OCC)OCC)[C@@H]1CC[C@]2(C(=O)O)CC[C@]3(C)[C@H](CC[C@@H]4[C@@]5(C)CC[C@H](OC(=O)CCC(C)(C)C(=O)O)C(C)(C)[C@@H]5CC[C@]43C)[C@@H]12` [Item 6], the CC50 [6] was over 68000 nM.

Work on `C=C(CP(=O)(OCC)OCC)[C@@H]1CC[C@]2(C(=O)O)CC[C@]3(C)[C@H](CC[C@@H]4[C@@]5(C)CC[C@H](OC(=O)CC(C)(C)CC(=O)O)C(C)(C)[C@@H]5CC[C@]43C)[C@@H]12` [Item 7] yielded a CC50 [6] of over 68000 nM.

Work on `CCOP(=O)(C=C(C)[C@@H]1CC[C@]2(C(=O)O)CC[C@]3(C)[C@H](CC[C@@H]4[C@@]5(C)CC[C@H](OC(=O)CC(C)(C)C(=O)O)C(C)(C)[C@@H]5CC[C@]43C)[C@@H]12)OCC` [Item 9] yielded a CC50 [6] of over 69000 nM.

For `CCOP(=O)(C=C(C)[C@@H]1CC[C@]2(C(=O)O)CC[C@]3(C)[C@H](CC[C@@H]4[C@@]5(C)CC[C@H](OC(=O)CCC(C)(C)C(=O)O)C(C)(C)[C@@H]5CC[C@]43C)[C@@H]12)OCC` [Item 10], the CC50 [6] was over 68000 nM.

With `CCOP(=O)(C=C(C)[C@@H]1CC[C@]2(C(=O)O)CC[C@]3(C)[C@H](CC[C@@H]4[C@@]5(C)CC[C@H](OC(=O)CC(C)(C)CC(=O)O)C(C)(C)[C@@H]5CC[C@]43C)[C@@H]12)OCC` [Item 11] the CC50 [6] was over 68000 nM.

`Cc1cn([C@H]2C[C@H](N=[N+]=[N-])[C@@H](CO)O2)c(=O)[nH]c1=O` [Item 12] showed a CC50 [6] of over 280000 nM.

In the case of `C=C(C)[C@@H]1CC[C@]2(C(=O)O)CC[C@]3(C)[C@H](CC[C@@H]4[C@@]5(C)CCC(=O)C(C)(C)[C@@H]5CC[C@]43C)[C@@H]12` [betulonic acid], the “activity against HIV-1” value [3] is listed as “weak activity”.

In the case of `CC(C)[C@@H]1CC[C@]2(C(=O)O)CC[C@]3(C)C(CCC4[C@@]5(C)CC[C@H](O)C(C)(C)C5CC[C@]43C)C12` (stereo partly drawn) [dihydrobetulinic acid], the EC50 [5] is listed as 900 nM.
